Measurements as given in patent US12410166B2, “Sulfonylamidine substituted compounds and their use as beta-lactamase inhibitors” (NINGXIA ACADEMY OF AGRICULTURE AND FORESTRY SCIENCES, priority 2021, dated 2025).
Where a name gives a salt, the structure may show the parent alone. Read-outs that look alike come from different tables or passages of the source.

How the values were obtained:
Assay in all cases: MIC by broth microdilution (antibacterial and synergistic activity)
Type in all cases: cell-based
[1] = test system: E. cloacae 700323 (strain 6, AmpC); conditions: for MIC: Enterobacter cloacae, read-out: Antibacterial activity, MIC, inhibitor Alone
Protocol: (§1) Compounds of the present invention alone, avibactam (AVI) alone, relebactam (REL) alone, meropenem (MER) alone, imipenem (IMI) alone, and as a combination of compounds of the present invention, or avibactam or relebactam with test antibiotic (meropenem or imipenem) was tested for antimicrobial activity by determining minimum inhibitory concentration (MIC, mg/L) using the broth microdilution method according to the guidelines of the Clinical Laboratories and Standards Institute (“Methods for Dilution Antimicrobial Susceptibility Tests for Bacterial that Grow Aerobically”, Approved standard, 7th ed., Clinical and Laboratories Standards Institute (CLSI) Document M7-A8, Wayne, Pa., USA, 2009). Meropenem or imipenem as a test antibiotic compound was dissolved in DMSO, and then diluted in microbial growth medium (Mueller-Hinton Broth II, cation adjusted) resulting in a final concentration range of 0.031-64 mg/L in serial two-fold dilution. In all cases the final DMSO concentration was less than 0.5%. Bacteria were added to 96-well microtitre plates containing the serial two-fold dilutions of the compounds; the final cell density was approximately 5×10^5 colony forming units/mL (CFU/mL). Plates were incubated at 37° C. for 18-24 hours and read visually. The MIC, i.e. the lowest concentration of the test compound that inhibited visible growth of the bacteria, was recorded. The same assay conditions were used when the compounds of present invention alone, avibactam or relebactam alone (as a control), and as a combination of the present invention each compound, or avibactam or relebactam with test meropenem or imipenem antibiotic compound was tested for minimum inhibitory concentration (MIC, mg/L). While test meropenem or imipenem was serially diluted as described above, a constant concentration of avibactam, or relebactam or the present invention each compound of 4 mg/L was used.
(§2) Bacterial strains that were used to evaluate the antimicrobial activity using the MIC determination included but were not limited to E. coli clinical isolate (strain 1, TEM-1), E. coli 8739 (strain 2, CTX-M15), K. pneumoniae clinical isolate (strain 3, SHV-1), K. pneumoniae 700603 (strain 4, KPC-3, TEM-1), E. cloacae clinical isolate (strain 5, P99), E. cloacae 700323 (strain 6, AmpC), A. baumannii clinical isolate (strain 7, OXA-23, OXA-40), A. baumannii 19606 (strain 8, OXA-24), P. aeruginosa clinical isolate (strain 9, KPC-2), P. aeruginosa 9027 (strain 10, AmpC).

[2] = test system: A. baumannii 19606 (strain 8, OXA-24); conditions: for MIC: Acinetobacter baumannii, read-out: Antibacterial activity, MIC, inhibitor Alone
Protocol: as §1, §2

[3] = test system: K. pneumoniae clinical isolate (strain 3, SHV-1); conditions: for MIC: Klebsiella pneumoniae, read-out: Antibacterial activity, MIC, inhibitor Alone
Protocol: as §1, §2

[4] = test system: P. aeruginosa 9027 (strain 10, AmpC); conditions: for MIC: Pseudomonas aeruginosa, read-out: Antibacterial activity, MIC, inhibitor Alone
Protocol: as §1, §2

[5] = test system: E. coli 8739 (strain 2, CTX-M15); conditions: for MIC: Escherichia coli, read-out: Antibacterial activity, MIC, inhibitor Alone
Protocol: as §1, §2

[6] = test system: P. aeruginosa clinical isolate (strain 9, KPC-2); conditions: for MIC: Pseudomonas aeruginosa, read-out: Antibacterial activity, MIC, inhibitor Alone
Protocol: as §1, §2

[7] = test system: A. baumannii clinical isolate (strain 7, OXA-23, OXA-40); conditions: for MIC: Acinetobacter baumannii, read-out: Antibacterial activity, MIC, inhibitor Alone
Protocol: as §1, §2

[8] = test system: E. coli clinical isolate (strain 1, TEM-1); conditions: for MIC: Escherichia coli, read-out: Antibacterial activity, MIC, inhibitor Alone
Protocol: as §1, §2

[9] = test system: K. pneumoniae 700603 (strain 4, KPC-3, TEM-1); conditions: for MIC: Klebsiella pneumoniae, read-out: Antibacterial activity, MIC, inhibitor Alone
Protocol: as §1, §2

[10] = test system: E. cloacae clinical isolate (strain 5, P99); conditions: for MIC: Enterobacter cloacae, read-out: Antibacterial activity, MIC, inhibitor Alone
Protocol: as §1, §2

[11] = strain 6 (AmpC), compound alone, no antibiotic
[12] = strain 6 (AmpC), inhibitor at constant 4 mg/L
[13] = strain 8 (OXA-24), inhibitor at constant 4 mg/L
[14] = strain 3 (SHV-1), compound alone, no antibiotic
[15] = strain 3 (SHV-1), inhibitor at constant 4 mg/L
[16] = strain 10 (AmpC), compound alone, no antibiotic
[17] = strain 10 (AmpC), inhibitor at constant 4 mg/L
[18] = strain 9 (KPC-2), compound alone, no antibiotic
[19] = strain 9 (KPC-2), inhibitor at constant 4 mg/L
[20] = strain 7 (OXA-23/40), compound alone, no antibiotic
[21] = strain 7 (OXA-23/40), inhibitor at constant 4 mg/L
[22] = strain 1 (TEM-1), compound alone, no antibiotic
[23] = strain 1 (TEM-1), inhibitor at constant 4 mg/L
[24] = strain 4 (KPC-3, TEM-1), compound alone, no antibiotic
[25] = strain 4 (KPC-3, TEM-1), inhibitor at constant 4 mg/L
[26] = strain 5 (P99), compound alone, no antibiotic
[27] = strain 5 (P99), inhibitor at constant 4 mg/L

N=C(NS(=O)(=O)CC(F)(F)F)[C@@H]1CC[C@@H]2CN1C(=O)N2OS(=O)(=O)[O-].[Na+] [Ex. 1, Sodium (2S,5R)-7-oxo-2-(N-((2,2,2-trifluoroethyl)sulfonyl)caramimidoyl)-1,6-diazabicyclo[3.2.1]octan-6-yl sulfate]
>64 µg/mL: Antibacterial activity, MIC, inhibitor Alone [1, 11] | Antibacterial activity, MIC, inhibitor Alone ([2]; strain 8 (OXA-24), compound alone, no antibiotic) | Antibacterial activity, MIC, inhibitor Alone [3, 14] | Antibacterial activity, MIC, inhibitor Alone [4, 16] | Antibacterial activity, MIC, inhibitor Alone ([5]; strain 2 (CTX-M15), compound alone, no antibiotic) | Antibacterial activity, MIC, inhibitor Alone [6, 18] | Antibacterial activity, MIC, inhibitor Alone [7, 20] | Antibacterial activity, MIC, inhibitor Alone [8, 22] | Antibacterial activity, MIC, inhibitor Alone [9, 24] | Antibacterial activity, MIC, inhibitor Alone [10, 26]
<0.125 µg/mL: MIC of meropenem in combination with the inhibitor (MER + inhibitor) [1, 12] | MIC of meropenem in combination with the inhibitor (MER + inhibitor) [7, 21] | MIC of meropenem in combination with the inhibitor (MER + inhibitor) [8, 23] | MIC of meropenem in combination with the inhibitor (MER + inhibitor) [9, 25] | MIC of meropenem in combination with the inhibitor (MER + inhibitor) [10, 27]
0.125 µg/mL: MIC of meropenem in combination with the inhibitor (MER + inhibitor) [3, 15] | MIC of meropenem in combination with the inhibitor (MER + inhibitor) [4, 17] | MIC of meropenem in combination with the inhibitor (MER + inhibitor) [6, 19] | MIC of imipenem in combination with the inhibitor (IMI + inhibitor) [8, 23]
0.5 µg/mL: MIC of meropenem in combination with the inhibitor (MER + inhibitor) [2, 13] | MIC of imipenem in combination with the inhibitor (IMI + inhibitor) [4, 17]
0.062 µg/mL: MIC of imipenem in combination with the inhibitor (IMI + inhibitor) [2, 13]
0.0625 µg/mL: MIC of imipenem in combination with the inhibitor (IMI + inhibitor) [1, 12] | MIC of imipenem in combination with the inhibitor (IMI + inhibitor) [7, 21]
1 µg/mL: MIC of imipenem in combination with the inhibitor (IMI + inhibitor) [10, 27]
0.25 µg/mL: MIC of imipenem in combination with the inhibitor (IMI + inhibitor) [3, 15] | MIC of imipenem in combination with the inhibitor (IMI + inhibitor) [6, 19] | MIC of imipenem in combination with the inhibitor (IMI + inhibitor) [9, 25]

N=C(NS(=O)(=O)C(F)(F)F)[C@@H]1CC[C@@H]2CN1C(=O)N2OS(=O)(=O)O [Ex. 14, (2S,5R)-7-oxo-2-(N-((trifluoromethyl)sulfonyl)carbamimidoyl)-1,6-diazabicyclo[3.2.1]octan-6-yl hydrogen sulfate]
> 64 µg/mL: MIC [1, 11] | MIC [2] | MIC [3, 14] | MIC [4, 16] | MIC [5] | MIC [6, 18] | MIC [7, 20] | MIC [8, 22] | MIC [9, 24] | MIC [10, 26]

N=C(NS(=O)(=O)N1CCC1)[C@@H]1CC[C@@H]2CN1C(=O)N2OS(=O)(=O)O [Ex. 15, (2S,5R)-2-(N-(azetidin-1-ylsulfonyl)carbamimidoyl)-7-oxo-1,6-diazabicyclo[3.2.1]octan-6-yl hydrogen sulfate]
> 64 µg/mL: MIC [1] | MIC [2] | MIC [3] | MIC [4] | MIC [5] | MIC [6] | MIC [7] | MIC [8] | MIC [9] | MIC [10]

COC(=O)CCS(=O)(=O)NC(=N)[C@@H]1CC[C@@H]2CN1C(=O)N2OS(=O)(=O)[O-].[Na+] [Ex. 4, Sodium (2S,5R)-2-(N-((3-methoxy-3-oxopropyl)sulfonyl)carbamimidoyl)-7-oxo-1,6-diazabicyclo[3.2.1]octan-6-ylsulfate]
> 64 µg/mL: MIC [1] | MIC [2] | MIC [3] | MIC [4] | MIC [5] | MIC [6] | MIC [7] | MIC [8] | MIC [9] | MIC [10]

COc1ccc(S(=O)(=O)NC(=N)[C@@H]2CC[C@@H]3CN2C(=O)N3OS(=O)(=O)O)nc1 [Ex. 22, (2S,5R)-2-(N-((5-methoxypyridin-2-yl)sulfonyl)carbamimidoyl)-7-oxo-1,6-diazabicyclo[3.2.1]octan-6-yl hydrogen sulfate]
> 64 µg/mL: MIC [1, 11] | MIC [2] | MIC [3, 14] | MIC [4, 16] | MIC [5] | MIC [6, 18] | MIC [7, 20] | MIC [8, 22] | MIC [9, 24] | MIC [10, 26]

N=C(NS(=O)(=O)c1cnccn1)[C@@H]1CC[C@@H]2CN1C(=O)N2OS(=O)(=O)O [Ex. 24, (2S,5R)-7-oxo-2-(N-(pyrazin-2-ylsulfonyl)carbamimidoyl)-1,6-diazabicyclo[3.2.1]octan-6-yl hydrogen sulfate]
> 64 µg/mL: MIC [1, 11] | MIC [2] | MIC [3, 14] | MIC [4, 16] | MIC [5] | MIC [6, 18] | MIC [7, 20] | MIC [8, 22] | MIC [9, 24] | MIC [10, 26]

COCCS(=O)(=O)NC(=N)[C@@H]1CC[C@@H]2CN1C(=O)N2OS(=O)(=O)[O-].[Na+] [Ex. 3, Sodium (2S,5R)-2-(N-((2-methoxyethyl)sulfonyl)carbamimidoyl)-7-oxo-1,6-diazabicyclo[3.2.1]octan-6-yl sulfate]
> 64 µg/mL: MIC [1, 11] | MIC [2] | MIC [3, 14] | MIC [4, 16] | MIC [5] | MIC [6, 18] | MIC [7, 20] | MIC [8, 22] | MIC [9, 24] | MIC [10, 26]

N=C(NS(=O)(=O)c1ccccn1)[C@@H]1CC[C@@H]2CN1C(=O)N2OS(=O)(=O)O [Ex. 12, (2S,5R)-7-Oxo-2-(N-(pyridin-2-ylsulfonyl)carbamimidoyl)-1,6-diazabicyclo[3.2.1]octan-6-yl hydrogen sulfate]
> 64 µg/mL: MIC [1, 11] | MIC [2] | MIC [3, 14] | MIC [4, 16] | MIC [5] | MIC [6, 18] | MIC [7, 20] | MIC [8, 22] | MIC [9, 24] | MIC [10, 26]

Cc1ccc(S(=O)(=O)NC(=N)[C@@H]2CC[C@@H]3CN2C(=O)N3OS(=O)(=O)[O-])cc1.[Na+] [Ex. 9, Sodium (2S,5R)-7-oxo-2-(N-tosylcarbamimidoyl)-1,6-diazabicyclo[3.2.1]octan-6-yl sulfate]
> 64 µg/mL: MIC [1, 11] | MIC [2] | MIC [3, 14] | MIC [4, 16] | MIC [5] | MIC [6, 18] | MIC [7, 20] | MIC [8, 22] | MIC [9, 24] | MIC [10, 26]
